Measurements as given in PMC11671793, “Design, Synthesis, and Evaluation of Novel (−)‐cis‐N‐Normetazocine Derivatives: In Vitro and Molecular Modeling Insights” (Chemical Biology & Drug Design, 2024).
Where two headings read alike, the source gives them in different places.

Experiments:
MOR (mu opioid receptor) [1] = target: T1, MOR (mu opioid receptor) (Rattus norvegicus, UniProt P33535); details: cited from earlier work
T1 construct: from tissue; host or cells: rat brain membranes

[2] = target: T2, DOR (delta opioid receptor) (Rattus norvegicus, UniProt P33533); details: cited from earlier work
MOR (mu opioid receptor) [3] = target: T1, MOR (mu opioid receptor); assay: MOR radioligand binding assay with [3H]-DAMGO; details: for K i DOR/K i MOR / K i KOR/K i MOR: selectivity ratio
[4] = target: T3, KOR (kappa opioid receptor) (Cavia porcellus, UniProt P41144); details: cited from earlier work
T3 construct: from tissue; host or cells: guinea pig brain membranes

[5] = target: T2, DOR (delta opioid receptor); assay: DOR radioligand binding assay with [3H]-Delthorphin
[6] = target: T3, KOR (kappa opioid receptor); assay: KOR radioligand binding assay with [3H]-U69,593; parameters: species or system guinea pig
DOR = target: DOR; parameters: method as in Pasquinucci et al. [2010]; details: Figure 1; ref Pasquinucci et al. [2010]; cited from earlier work
KOR = target: KOR; parameters: method as in Pasquinucci et al. [2010]; details: Figure 1; ref Pasquinucci et al. [2010]; cited from earlier work
MOR = target: MOR; parameters: method as in Pasquinucci et al. [2010]; details: Figure 1; ref Pasquinucci et al. [2010]; cited from earlier work
[7] = read-out: MOR Expected K i, experimental Ki as repeated in Table 2, previously synthesized compounds, ref Pasquinucci et al. ([2017]), Costanzo et al. ([2023])
[8] = read-out: DOR Expected K i, experimental Ki as repeated in Table 2, previously synthesized compounds, ref Pasquinucci et al. ([2017]), Costanzo et al. ([2023])
[9] = read-out: KOR Expected K i, experimental Ki as repeated in Table 2, previously synthesized compounds, ref Pasquinucci et al. ([2017]), Costanzo et al. ([2023])
[10] = K i (nM) ± SD KOR, [3H]-U69,593, mean ± SD of at least two experiments in duplicate
[11] = KOR Expected K i (nM), experimental Ki as repeated in Table 2

T2 sequence (P33533 whole entry): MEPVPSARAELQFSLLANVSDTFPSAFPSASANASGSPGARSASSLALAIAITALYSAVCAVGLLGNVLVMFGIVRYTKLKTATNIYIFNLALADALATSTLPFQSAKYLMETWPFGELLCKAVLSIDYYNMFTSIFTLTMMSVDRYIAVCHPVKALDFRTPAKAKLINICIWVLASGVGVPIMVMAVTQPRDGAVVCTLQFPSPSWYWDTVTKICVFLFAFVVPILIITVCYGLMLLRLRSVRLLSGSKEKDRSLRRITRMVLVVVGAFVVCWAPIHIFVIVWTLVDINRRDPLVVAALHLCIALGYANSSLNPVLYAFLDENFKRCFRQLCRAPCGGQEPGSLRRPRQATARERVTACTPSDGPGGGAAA
T1 sequence (P33535 whole entry): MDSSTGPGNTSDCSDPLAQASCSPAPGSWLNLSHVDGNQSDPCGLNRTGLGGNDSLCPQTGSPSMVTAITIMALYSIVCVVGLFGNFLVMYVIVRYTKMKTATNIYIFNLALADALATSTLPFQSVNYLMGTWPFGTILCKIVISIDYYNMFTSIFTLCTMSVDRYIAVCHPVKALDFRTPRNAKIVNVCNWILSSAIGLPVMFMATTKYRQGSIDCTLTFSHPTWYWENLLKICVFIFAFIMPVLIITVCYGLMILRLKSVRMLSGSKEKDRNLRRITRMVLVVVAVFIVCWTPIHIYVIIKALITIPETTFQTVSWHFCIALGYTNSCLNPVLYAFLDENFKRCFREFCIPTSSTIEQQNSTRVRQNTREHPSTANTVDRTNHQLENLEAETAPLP
T3 sequence (P41144 whole entry): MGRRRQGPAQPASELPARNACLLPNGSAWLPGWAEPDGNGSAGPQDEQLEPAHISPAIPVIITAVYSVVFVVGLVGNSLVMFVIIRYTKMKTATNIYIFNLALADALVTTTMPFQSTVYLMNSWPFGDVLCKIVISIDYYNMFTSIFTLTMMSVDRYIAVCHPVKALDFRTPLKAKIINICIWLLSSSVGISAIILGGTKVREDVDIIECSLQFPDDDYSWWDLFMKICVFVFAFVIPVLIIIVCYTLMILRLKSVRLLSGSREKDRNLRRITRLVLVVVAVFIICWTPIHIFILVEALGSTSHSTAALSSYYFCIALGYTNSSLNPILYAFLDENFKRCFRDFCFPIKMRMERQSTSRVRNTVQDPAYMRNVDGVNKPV

| SMILES | K i DOR/K i MOR (MOR (mu opioid receptor) [3]) | K i KOR/K i MOR (MOR (mu opioid receptor) [3]) | Ki [5] [nM] | Ki [6, 10] [nM] | Ki (MOR (mu opioid receptor) [3]) [nM] | further results |
| --- | --- | --- | --- | --- | --- | --- |
| CCOC(=O)C(CCN1CCC2(C)c3cc(O)ccc3CC1C2C)c1ccccc1 (stereo not drawn) [Compound 1] | 40.70 | 12.00 | – | – | – | Ki (MOR (mu opioid receptor) [1]; experimental Ki as repeated in Table 2, previously synthesized compounds, ref Pasquinucci et al. ([2017]), Costanzo et al. ([2023]), read-out: MOR Expected K i): 10.8 ± 2 nM; Ki (MOR (mu opioid receptor) [1]; footnote b, ref Pasquinucci et al. ([2017]), read-out: K i (nM) ± SD MOR): 10.8 ± 2 nM; Ki ([2]; experimental Ki as repeated in Table 2, previously synthesized compounds, ref Pasquinucci et al. ([2017]), Costanzo et al. ([2023]), read-out: DOR Expected K i): 440 ± 22 nM; Ki ([2]; footnote b, ref Pasquinucci et al. ([2017]), read-out: K i (nM) ± SD DOR): 440 ± 22 nM; Ki ([4]; experimental Ki as repeated in Table 2, previously synthesized compounds, ref Pasquinucci et al. ([2017]), Costanzo et al. ([2023]), read-out: KOR Expected K i): 130 ± 15 nM; Ki ([4]; footnote b, ref Pasquinucci et al. ([2017]), read-out: K i (nM) ± SD KOR): 130 ± 15 nM |
| CC1C2Cc3ccc(O)cc3C1(C)CCN2CCC(C(=O)O)c1ccccc1 (stereo not drawn) [Compound 2] | 23.30 | – | – | – | – | Ki (MOR (mu opioid receptor) [1]; read-out: K i (nM) ± SD MOR, footnote b, ref Pasquinucci et al. ([2017])): 11.8 ± 2 nM; Ki (MOR (mu opioid receptor) [1]; [7]): 11.8 ± 2 nM; Ki [2, 8]: 275 ± 11 nM; Ki ([2]; read-out: K i (nM) ± SD DOR, footnote b, ref Pasquinucci et al. ([2017])): 275 ± 11 nM; Ki ([4]; read-out: K i (nM) ± SD KOR, footnote b, ref Pasquinucci et al. ([2017])): 3220 ± 60 nM; Ki [4, 9]: 3220 ± 60 nM |
| COC(=O)CCN1CC[C@@]2(C)c3cc(O)ccc3C[C@@H]1[C@@H]2C [Compound 3, Methyl 3‐[(2R,6R,11R)‐8‐hydroxy‐6,11‐dimethyl‐1,4,5, 6‐tetrahydro‐2,6‐methanobenzo[d]azocin‐3(2H]‐yl)propanoate] | 26.98 | 3.19 | 513 ± 30 | 60.7 ± 8 | 19 ± 3 | Ki [6, 11]: 60.7 ± 0.7 nM |
| COC(=O)CCCN1CC[C@@]2(C)c3cc(O)ccc3C[C@@H]1[C@@H]2C [Compound 4, Methyl 4‐((2R,6R,11R)‐8‐hydroxy‐6,11‐dimethyl‐1,4,5,6‐tetrahydro‐2,6‐ methanobenzo[d]azocin‐3(2H)‐yl)butanoate] | 3.21 | 1.04 | 218 ± 20 | 70.5 | 67.8 ± 7 | Ki [6, 11]: 70.5 ± 0.76 nM |
| C[C@H]1[C@H]2Cc3ccc(O)cc3[C@]1(C)CCN2CCC(=O)O [Compound 5, 3‐((2R,6R,11R)‐8‐Hydroxy‐6,11‐dimethyl‐1,4,5,6‐tetrahydro‐2,6‐methanobenzo[d]azocin‐3(2H)‐yl)propanoic acid] | 2.88 | – | 1100 ± 54 | > 5000 | 383 ± 21 | – |
| C[C@H]1[C@H]2Cc3ccc(O)cc3[C@]1(C)CCN2CCCC(=O)O [Compound 6, 4‐((2R,6R,11R)‐8‐Hydroxy‐6,11‐dimethyl‐1,4,5,6‐tetrahydro‐2,6‐methanobenzo[d]azocin‐3(2H)‐yl)butanoic acid] | 1.21 | – | 1200 ± 64 | > 5000 | 992 ± 55 | – |
| C[C@H]1[C@H]2Cc3ccc(O)cc3[C@]1(C)CCN2CCC(=O)NO [Compound 7, N‐Hydroxy‐3‐((2R,6R,11R)‐8‐hydroxy‐6,11‐dimethyl‐1,4,5,6‐tetrahydro‐2,6‐methanobenzo[d]azocin‐3(2H)‐yl)propanamide] | 10.89 | – | 335 ± 19 | > 5000 | 30.8 ± 2 | – |
| C[C@H]1[C@H]2Cc3ccc(O)cc3[C@]1(C)CCN2CCCC(=O)NO [Compound 8, N‐Hydroxy‐4‐((2R,6R,11R)‐8‐hydroxy‐6,11‐dimethyl‐1,4,5,6‐tetrahydro‐2,6‐methanobenzo[d]azocin‐3(2H)‐yl)butanamide] | 30.83 | – | 1300 ± 80 | > 5000 | 42.2 ± 3 | – |
| CC1C2Cc3ccc(O)cc3C1(C)CCN2CCC(=O)Nc1ccccc1 (stereo not drawn) [LP1] | – | – | – | – | – | Ki (DOR): 29.1 nM; Ki (KOR): 110 nM; Ki (MOR): 0.83 nM |
| COC(CN1CCC2(C)c3cc(O)ccc3CC1C2C)c1ccccc1 (stereo not drawn) [LP2] | 6.11 | 14.10 | – | – | – | Ki (MOR (mu opioid receptor) [1]; read-out: K i (nM) ± SD MOR, footnote c, ref Costanzo et al. ([2023])): 1.08 ± 0.1 nM; Ki (MOR (mu opioid receptor) [1]; [7]): 1.08 ± 0.1 nM; Ki [2, 8]: 6.61 ± 0.6 nM; Ki ([2]; read-out: K i (nM) ± SD DOR, footnote c, ref Costanzo et al. ([2023])): 6.61 ± 0.6 nM; Ki ([4]; read-out: K i (nM) ± SD KOR, footnote c, ref Costanzo et al. ([2023])): 15.2 ± 0.8 nM; Ki [4, 9]: 15.2 ± 0.8 nM |
